# Counter-ions that a name gives are not always drawn. Like-named read-outs stand apart in the source and are kept apart here.
# How the values were obtained:
# [1] = Hygroscopicity - dynamic vapor sorption (DVS); format: physicochemical; settings: for mass greater than the original value at 0% RH after desorption: DVS desorption phase, end at 0% RH; for RH up to which the sample did not adsorb much moisture (rapid sorption above): DVS sorption phase from 0% RH; for moisture sorption at 95% RH / moisture sorption at 90% RH: 25° C.
# Experimental: Hygroscopicity—Dynamic Vapor Sorption (DVS):
# Samples were analyzed using an automated dynamic vapor sorption analyzer. The sample (about 1-10 mg) was dried in the instrument 0% RH for 6 hours.
# [2] = Solubility in water (incremental solvent addition, visual observation); settings: for solubility: thermodynamic from solid
# Experimental: Milligram size quantities of each sample were placed into a vial. Water was added and the vials were stirred for a few minutes, followed by visual observation for remaining solids. The solvent was incrementally added until the solids were dissolved, or a maximum volume of solvent was added and the experiment was terminated.
# [3] = Stability study of salts and free base under stress, HPLC total area normalization; format: physicochemical
# Experimental: The scaled up salts and free base were challenged by heat (solids stored at 25 and 60° C. for 1 week), oxidation (solids stored in oxygen headspace at 25° C. for 1 week), light (solids exposed to ≥1×ICH UV confirmatory conditions), and solutions (HPLC diluent) at 25 and 40° C. for 1 week. These samples were analyzed, along with unstressed controls, by HPLC to characterize their stability.
# Crystalline forms (i.e., salts and free base) of the present invention were analyzed by total area normalization (TAN). The samples were dissolved in 1:1 Acetonitrile (ACN):Water (H2O) at a concentration of 0.5 mg/mL.
# Stressed samples were analyzed using HPLC to determine their impurity profiles.
# The stability results shown in Table 10 represent the averages of two injections of duplicate sample preparations.
# [4] = Stability study, qualitative proton NMR of stressed samples; format: physicochemical; settings: heat stress (solids stored at 60° C.)
# Experimental: To confirm the little or no degradation observed in the HPLC stability study, some samples (solids stored at 60° C. and oxidation) of four of the salts and free base were further analyzed by proton NMR (i.e., HNMR). The analysis was qualitative.
# [5] = Pharmacokinetic study of salt forms in rat plasma and brain after oral gavage; format: in vivo; settings: for AUC%Extrap / Maximum Brain Level / Kp at 8 h / AUC / AUC(0-inf) / half-life / Cmax / Tmax / AUCINF / AUCall / T1/2 / Brain:Plasma Ratio: male rats, single 25 mg/kg free base by oral gavage; for Maximum Brain Level / Kp at 8 h / Brain:Plasma Ratio: brain at 1, 3 and 8 hours; for Kp at 8 h: brain and plasma, read-out: Brain:Plasma Ratio
# Experimental: The objective of this study was to provide preliminary pharmacokinetic information regarding the exposure of different salt forms of LM11A-31 in rat plasma and brain when dosed by oral gavage. Groups consisting of nine male rats received single doses of 25 mg/kg free base by oral gavage. Plasma samples were obtained from three rats per timepoint after administration (0.5, 1, 2, 3, 4, and 8 hours) and brain samples were collected at 1-, 3-, and 8-hour terminations (three rats per time point).
# The samples were analyzed by LC-MS/MS to determine the plasma and brain concentrations of the test article. Pharmacokinetic analysis of the plasma concentration data was conducted using noncompartmental analysis with WinNonlin Version 4.1.
# [6] = Oxidation Ambient (oxygen headspace, 25° C., 1 week)
# [7] = Photo Stability - Exposed (UV, ICH confirmatory conditions)
# [8] = Solution (water and acetonitrile 1:1) - 40 C., 1 week
# [9] = Solution (water and acetonitrile 1:1) - Ambient, 1 week
Compound,overall hygroscopicity (in words) ([1]; DVS),mass greater than the original value at 0% RH after desorption [1],RH up to which the sample did not adsorb much moisture (rapid sorption above) [1],moisture sorption at 95% RH ([1]; DVS sorption phase),solubility [2],"HPLC Total Area Normalization - Area % Purity [3, 6]",HPLC Total Area Normalization - Area % Purity ([3]; Photo Stability - Dark Control),"HPLC Total Area Normalization - Area % Purity [3, 7]","HPLC Total Area Normalization - Area % Purity ([3]; Solid State - Ambient, 1 week)","HPLC Total Area Normalization - Area % Purity [3, 8]",AUC%Extrap ([5]; plasma),Maximum Brain Level [5],"HPLC Total Area Normalization - Area % Purity ([3]; Solid State - 60 C., 1 week)","HPLC Total Area Normalization - Area % Purity [3, 9]",AUCINF ([5]; plasma),AUCall ([5]; plasma),Cmax ([5]; plasma),T1/2 ([5]; plasma),Tmax ([5]; plasma),also measured
"CCC(C)C(N)C(=O)NCCN1CCOCC1 (centres unmarked) [di-HCl salt, 2-amino-3-methyl-N-(2-morpholinoethyl)-pentanamide]",quite hygroscopic,about 5 wt %,20 % RH,140 wt %,> 30 mg/mL,,,,,,,,,,,,,,,
"CC[C@H](C)[C@H](N)C(=O)NCCN1CCOCC1 (stereo in doubt) [Free base, 2-amino-3-methyl-N-(2-morpholinoethyl)-pentanamide]",,original weight,45 % RH,96 wt %,> 30 mg/mL,99.97 Area %,99.97 Area %,99.98 Area %,100 Area %,99.89 Area %,4.81%,105 ng/g tissue,,,,,,,,"moisture adsorbed from 45% to 50% RH ([1]; DVS sorption phase, 45% to 50% RH): ~10 wt %; degradation after heat stress by proton NMR [4]: slight degradation; Kp at 8 h ([5]; rat): 2 to 3.5; AUC ([5]; rat, plasma): 321 ng·h/mL; AUC(0-inf) ([5]; rat, plasma): 316 ng·h/mL; half-life ([5]; rat, plasma): 63 min; Cmax ([5]; rat, plasma, read-out: Cmax): 371 ng/mL; Tmax ([5]; rat, plasma, read-out: Tmax): 30 min"
"CCC(C)C(N)C(=O)NCCN1CCOCC1.CS(=O)(=O)O.CS(=O)(=O)O (centres unmarked) [Dimesylate, 2-amino-3-methyl-N-(2-morpholinoethyl)-pentanamide Dimesylate]",,about 3 wt %,55 % RH,110 wt %,≥ 28 mg/mL,,,,,,,,,,,,,,,
"CCC(C)C(N)C(=O)NCCN1CCOCC1.O=C(O)C(=O)O (centres unmarked) [Monooxalate, 2-amino-3-methyl-N-(2-morpholinoethyl)-pentanamide Monooxalate]",did not take up much water,,50 % RH,1.5 wt %,,,,,,,,,,,,,,,,
2-amino-3-methyl-N-(2-morpholinoethyl)-pentanamide Digluconate,,about 4 wt %,45 % RH,110 wt %,,,,,,,,,,,,,,,,
2-amino-3-methyl-N-(2-morpholinoethyl)-pentanamide Monoedisylate,,,80 % RH,,,99.95 Area %,99.97 Area %,99.86 Area %,99.79 Area %,99.90 Area %,1.52%,98 ng/g tissue,99.95 Area %,999.81 Area %,243 ng·h/mL,247 ng·h/mL,284 ng/mL,42.5 min,30 min,moisture sorption at 90% RH ([1]; DVS sorption phase): 85 wt %; Brain:Plasma Ratio [5]: 1.4-3.3; crude solubility in water [2]: ≤ 14 mg/mL
"CCC(C)C(N)C(=O)NCCN1CCOCC1.O=S(=O)(O)c1ccc2ccccc2c1.O=S(=O)(O)c1ccc2ccccc2c1 (centres unmarked) [Dinapsylate, 2-amino-3-methyl-N-(2-morpholinoethyl)-pentanamide Dinapsylate]",did not appear deliquescent,,about 80 % RH,,,99.81 Area %,99.85 Area %,99.82 Area %,99.90 Area %,99.96 Area %,3.44%,123 ng/g tissue,99.87 Area %,99.87 Area %,280 ng·h/mL,270 ng·h/mL,335 ng/mL,114 min,30 min,"water taken up at high humidity ([1]; DVS, high humidity, no equilibrium at the highest humidity): 3 to 4 wt %; overall PK properties compared with the free base ([5]; rat, oral gavage): better PK properties than the free base; terminal plasma half-life compared with the free base ([5]; rat, oral gavage, plasma): longer terminal plasma half-life"
"CCC(C)C(N)C(=O)NCCN1CCOCC1.Cc1ccc(S(=O)(=O)O)cc1.Cc1ccc(S(=O)(=O)O)cc1 (centres unmarked) [Ditosylate, 2-amino-3-methyl-N-(2-morpholinoethyl)-pentanamide Ditosylate]",,,80 % RH,,0.5 to 0.7 mg/mL,99.92 Area %,99.94 Area %,99.93 Area %,99.82 Area %,99.91 Area %,1.45%,120 ng/g tissue,99.94 Area %,99.89 Area %,,,,,,"moisture sorption at 90% RH ([1]; DVS sorption phase): 30 wt %; Kp at 8 h ([5]; rat): 1 to 5.7; AUC ([5]; rat, plasma): 295 ng·h/mL; AUC(0-inf) ([5]; rat, plasma): 290 ng·h/mL; half-life ([5]; rat, plasma): 37.8 min; Cmax ([5]; rat, plasma, read-out: Cmax): 296 ng/mL; Tmax ([5]; rat, plasma, read-out: Tmax): 30 min"
2-amino-3-methyl-N-(2-morpholinoethyl)-pentanamide Disulfate,,about 4 wt %,60 % RH,140 wt %,,99.97 Area %,99.97 Area %,99.94 Area %,99.98 Area %,99.75 Area %,5.26%,77 ng/g tissue,99.98 Area %,99.90 Area %,410 ng·h/mL,416 ng·h/mL,413 ng/mL,66 min,30 min,"Brain:Plasma Ratio [5]: 0.6-1.8; overall PK properties compared with the free base ([5]; rat, oral gavage): better PK properties than the free base; exposure (AUC and Cmax) compared with the free base ([5]; rat, oral gavage, plasma): higher exposure; solubility in water ([2]; ambient temperature): > 3"
